# Assay results reported in ChEMBL document CHEMBL1157782, “Anti-microtubule 'plinabulin' chemical probe KPU-244-B3 labeled both alpha- and beta-tubulin” (Bioorg Med Chem, 2010).
# The source made the active and inactive calls. The calls are words filed in the database; no cut-off is given here. Square brackets hold non-standard residues; d marks the D form. Peptide text beside a SMILES is read from it. * marks the point of attachment. Biotin = O=C1N[C@H]2[C@H](CS[C@H]2CCCCC(=O)*)N1; Ahx = NCCCCCC(=O)O
# How the values were obtained:
# HT-29 = test: Cytotoxicity against human HT-29 cells; assay type: functional, cell-based
# Tubulin = Tubulin (Sus scrofa, UniProt P02554+P02550); test: Binding affinity to pig tubulin after 1 hr by fluorescence quenching analysis; assay type: protein assay
# Tubulin (Sus scrofa) [1] = target: T1, Tubulin (Sus scrofa) (UniProt P02554+P02550); test: Binding affinity to pig tubulin at 2 uM treated for 30 mins followed by photo-irradiation at 365 nm for 30 secs measured after 1 hr by Western blot analysis; assay type: protein assay
# T1 sequence (P02550 whole entry, looked up): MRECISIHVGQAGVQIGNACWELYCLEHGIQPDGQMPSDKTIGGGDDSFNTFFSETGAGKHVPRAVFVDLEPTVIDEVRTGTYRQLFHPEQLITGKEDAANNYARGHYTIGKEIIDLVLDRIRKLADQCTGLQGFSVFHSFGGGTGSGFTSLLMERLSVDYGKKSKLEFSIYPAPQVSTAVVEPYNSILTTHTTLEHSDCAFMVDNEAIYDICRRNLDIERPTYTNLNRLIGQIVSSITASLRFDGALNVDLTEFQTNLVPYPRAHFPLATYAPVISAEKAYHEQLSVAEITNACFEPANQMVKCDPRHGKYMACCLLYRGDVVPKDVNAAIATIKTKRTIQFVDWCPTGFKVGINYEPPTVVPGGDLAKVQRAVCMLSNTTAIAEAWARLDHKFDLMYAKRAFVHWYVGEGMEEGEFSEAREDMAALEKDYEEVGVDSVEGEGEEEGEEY
# T1 sequence (P02554 whole entry, looked up): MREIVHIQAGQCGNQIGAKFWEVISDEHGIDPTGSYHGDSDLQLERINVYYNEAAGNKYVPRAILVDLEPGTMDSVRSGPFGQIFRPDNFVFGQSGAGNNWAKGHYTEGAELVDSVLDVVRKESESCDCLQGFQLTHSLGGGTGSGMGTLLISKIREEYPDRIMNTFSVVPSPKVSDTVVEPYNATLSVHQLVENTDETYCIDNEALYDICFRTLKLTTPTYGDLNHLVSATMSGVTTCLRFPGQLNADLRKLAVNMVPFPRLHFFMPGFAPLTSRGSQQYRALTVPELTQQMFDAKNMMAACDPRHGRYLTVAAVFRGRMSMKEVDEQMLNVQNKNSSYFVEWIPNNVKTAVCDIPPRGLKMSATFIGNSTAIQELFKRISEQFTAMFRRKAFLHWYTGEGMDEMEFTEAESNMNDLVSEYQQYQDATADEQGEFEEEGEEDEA
# Tubulin (Sus scrofa) [2] = target: T1, Tubulin (Sus scrofa); test: Binding affinity to pig tubulin at 2 uM treated for 30 mins followed by photo-irradiation at 365 nm for 30 secs measured after 1 hr by CBB staining-based SDS-PAGE; assay type: protein assay
# HT-1080 [3] = test: Binding affinity to alpha-tubulin in human HT1080 cells after overnight incubation by SDS-PAGE; assay type: cell-based
# Tubulin (Sus scrofa) [4] = target: T1, Tubulin (Sus scrofa); test: Binding affinity to pig tubulin assessed as irradiation-time-dependent labeling at 2 uM treated for 30 mins followed by photo-irradiation at 365 nm by CBB staining-based SDS-PAGE; assay type: protein assay; conditions: TDE = time-dependent effect
# Tubulin (Sus scrofa) [5] = target: T1, Tubulin (Sus scrofa); test: Binding affinity to pig tubulin at 2 uM treated for 30 mins followed by photo-irradiation at 365 nm for 30 secs measured after 1 hr by Western blot analysis in presence of 100 equivalents of colchicine; assay type: protein assay
# Sus scrofa [6] = organism: Sus scrofa; test: Binding affinity to pig alpha-tubulin at 2 uM treated for 30 mins followed by photo-irradiation at 365 nm for 30 secs measured after 1 hr by Western blot analysis
# HT-1080 [7] = test: Binding affinity to beta-tubulin in human HT1080 cells after overnight incubation by SDS-PAGE; assay type: cell-based
# Tubulin (Sus scrofa) [8] = target: T1, Tubulin (Sus scrofa); test: Binding affinity to pig tubulin at 2 uM treated for 30 mins followed by photo-irradiation at 365 nm for 30 secs measured after 1 hr by Western blot analysis in presence of 5-100 equivalents of biotin; assay type: protein assay
# Sus scrofa [9] = organism: Sus scrofa; test: Binding affinity to pig beta-tubulin at 2 uM treated for 30 mins followed by photo-irradiation at 365 nm for 30 secs measured after 1 hr by Western blot analysis
# Tubulin (Sus scrofa) [10] = target: T1, Tubulin (Sus scrofa); test: Binding affinity to pig tubulin at 2 uM treated for 30 mins followed by photo-irradiation at 365 nm for 30 secs measured after 1 hr by Western blot analysis in presence of increasing concentration of plinabulin; assay type: protein assay
SMILES,IC50 (HT-29),Kd (Tubulin),Activity (HT-1080 [3]),Activity (HT-1080 [7]),also measured
CC(C)(C)c1ocnc1/C=c1\[nH]c(=O)/c(=C/c2cccc(C(=O)c3ccccc3)c2)[nH]c1=O,4 nM,–,–,–,–
CC(C)(C)c1ocnc1/C=c1\[nH]c(=O)/c(=C/c2cccc(C(=O)c3ccc(CNC(=O)CCCCCNC(=O)CCCCCNC(=O)CCCC[C@@H]4SC[C@@H]5NC(=O)N[C@@H]54)cc3)c2)[nH]c1=O (stereo in doubt),–,9740 nM,–,–,Activity (Tubulin (Sus scrofa) [1]): Active
CC(C)(C)c1ocnc1/C=c1\[nH]c(=O)/c(=C/c2cccc(C(=O)c3ccc(CNC(=O)CCCCCNC(=O)CCCCCNC(=O)CCCCCNC(=O)CCCCCNC(=O)[C@H](CCCCN)NC(=O)[C@H](CCCCN)NC(=O)CCCCCNC(=O)CCCCCNC(=O)CCCC[C@@H]4SC[C@@H]5NC(=O)N[C@@H]54)cc3)c2)[nH]c1=O (stereo in doubt),–,25170 nM,Active,Active,Activity (Tubulin (Sus scrofa) [2]): Active; Activity (Tubulin (Sus scrofa) [4]): tde; Activity (Tubulin (Sus scrofa) [5]): inactive; Activity (Sus scrofa [6]): Active; Activity (Tubulin (Sus scrofa) [8]): Active; Activity (Sus scrofa [9]): Active; Activity (Tubulin (Sus scrofa) [10]): inactive
NCCCC[C@H](NC(=O)CCCCCNC(=O)CCCCCNC(=O)CCCC[C@@H]1SC[C@@H]2NC(=O)N[C@@H]21)C(=O)N[C@@H](CCCCN)C(=O)NCCCCCC(=O)NCCCCCC(=O)NCCCCCC(=O)NCCCCCC(=O)O ({Biotin-Ahx-Ahx}-KK[Ahx][Ahx][Ahx][Ahx]-OH),–,–,inactive,inactive,–
CC(C)(C)c1[nH]cnc1/C=c1\[nH]c(=O)/c(=C/c2ccccc2)[nH]c1=O [PLINABULIN],15 nM,1060 nM,–,–,–
